Measured values reported in US20190239511A1, “Synergistic Combinations Of Monochloramine And Peroxide Compound, And Methods Of Using The Same For Microbial Control” (Buckman Laboratories International, Inc., priority 2018, published 2019).

Tested on: bacteria in 35 wt % corn slurry solution
Test: Bacterial growth control in corn slurry, bacteria count and reduction (Example 2, Table 1 and FIG. 5)
Assay type: cell-based
Method: The effect of combined amounts of hydrogen peroxide and monochloramine at other tested addition amounts on bacterial growth control and their addition timing was further studied using laboratory experiments. For this additional study, laboratory experiments were performed using hydrogen peroxide at dosages of 100 ppm and 200 ppm, and monochloramine (“Oxamine”) at dosages of 25 ppm, 50 ppm, 75 ppm, and 100 ppm. The time between peroxide and monochloramine addition was up to 10 minutes (i.e., 0-10 minutes). All experiments were carried out with 35 wt % corn slurry solution.

OO [H2O2, hydrogen peroxide]
% Reduction (100 ppm H2O2 alone): 0.00%
Bacteria Count (100 ppm H2O2 alone): 5.E+06
% Reduction (200 ppm H2O2 alone): 18.37%
Bacteria Count (200 ppm H2O2 alone): 4.E+06

NCl [Oxamine, monochloramine]
% Reduction (25 ppm Oxamine alone): 98.99%
Bacteria Count (25 ppm Oxamine alone): 5.E+04
% Reduction (50 ppm Oxamine alone): 99.93%
Bacteria Count (50 ppm Oxamine alone): 4.E+03
% Reduction (75 ppm Oxamine alone): 99.97%
Bacteria Count (75 ppm Oxamine alone): 1.E+03
% Reduction (100 ppm Oxamine alone): 99.98%
Bacteria Count (100 ppm Oxamine alone): 9.E+02
